Source: the NIST ThermoML archive (doi:10.1016/j.jct.2011.09.001)
Numbers after ± are expanded uncertainties.

Key:
[1] = 101 kPa, Liquid; for speed of sound: Sing-around technique in a fixed-path interferometer; for mass density: Vibrating tube method
[2] = refractive index (Na D-line) (dimensionless); conditions: 101.33 kPa, Liquid, Standard Abbe refractometry
[3] = xn = mol fraction of the nth substance listed; conditions: 101 kPa, Liquid, x2 = 0; for speed of sound: Sing-around technique in a fixed-path interferometer; for mass density: Vibrating tube method
[4] = refractive index (Na D-line) (dimensionless); xn = mol fraction of the nth substance listed; conditions: 101 kPa, Liquid, Standard Abbe refractometry, x2 = 0

Row | SMILES | speed of sound ([1]; 293.15 K) [m/s] | mass density ([1]; 293.15 K) [kg/m3] | speed of sound ([1]; 303.15 K) [m/s] | mass density ([1]; 303.15 K) [kg/m3] | speed of sound ([1]; 313.15 K) [m/s] | mass density ([1]; 313.15 K) [kg/m3] | speed of sound ([1]; 323.15 K) [m/s] | mass density ([1]; 323.15 K) [kg/m3] | speed of sound ([1]; 333.15 K) [m/s] | mass density ([1]; 333.15 K) [kg/m3] | speed of sound ([1]; 343.15 K) [m/s] | mass density ([1]; 343.15 K) [kg/m3] | refractive index ([2]; 293.15 K) | refractive index ([2]; 303.15 K) | refractive index ([2]; 313.15 K) | refractive index ([2]; 323.15 K) | refractive index ([2]; 333.15 K) | refractive index ([2]; 343.15 K) | further results
1 | c1ccc2c(c1)CCCC2 [1,2,3,4-tetrahydronaphthalene] | 1489.5 ± 1.3 | 969.5 ± 0.2 | 1450.1 ± 1.2 | 961.6 ± 0.2 | 1411.5 ± 1.2 | 953.7 ± 0.2 | 1373.6 ± 1.2 | 945.7 ± 0.2 | 1336.4 ± 1.2 | 937.8 ± 0.2 | 1299.8 ± 1.2 | 929.8 ± 0.2 | 1.5414 ± 0.0005 | 1.5367 ± 0.0005 | 1.5321 ± 0.0005 | 1.5274 ± 0.0005 | 1.5228 ± 0.0005 | 1.518 ± 0.0005 | –
2 | CCCCCCCCCC [decane] + c1ccc2c(c1)CCCC2 | – | – | – | – | – | – | – | – | – | – | – | – | – | – | – | – | – | – | speed of sound ([3]; 293.15 K): 1254.6 ± 1.2 m/s; mass density ([3]; 293.15 K): 730.1 ± 0.2 kg/m3; speed of sound ([3]; 303.15 K): 1215.1 ± 1.2 m/s; mass density ([3]; 303.15 K): 722.6 ± 0.3 kg/m3; speed of sound ([3]; 313.15 K): 1176.1 ± 1.2 m/s; mass density ([3]; 313.15 K): 714.9 ± 0.3 kg/m3; speed of sound ([3]; 323.15 K): 1137.6 ± 1.2 m/s; mass density ([3]; 323.15 K): 707.3 ± 0.3 kg/m3; speed of sound ([3]; 333.15 K): 1099.8 ± 1.2 m/s; mass density ([3]; 333.15 K): 699.5 ± 0.3 kg/m3; speed of sound ([3]; 343.15 K): 1062.3 ± 1.2 m/s; mass density ([3]; 343.15 K): 691.8 ± 0.3 kg/m3; refractive index ([4]; 293.15 K): 1.4123 ± 0.0005; refractive index ([4]; 303.15 K): 1.4079 ± 0.0005; refractive index ([4]; 313.15 K): 1.4033 ± 0.0005; refractive index ([4]; 323.15 K): 1.3987 ± 0.0005; refractive index ([4]; 333.15 K): 1.3942 ± 0.0005; refractive index ([4]; 343.15 K): 1.3893 ± 0.0005
3 | CCCCCCCCCC [decane] | 1254.6 ± 1.2 | 730.1 ± 0.2 | 1215.1 ± 1.2 | 722.6 ± 0.3 | 1176.1 ± 1.2 | 714.9 ± 0.3 | 1137.6 ± 1.2 | 707.3 ± 0.3 | 1099.8 ± 1.2 | 699.5 ± 0.3 | 1062.3 ± 1.2 | 691.8 ± 0.3 | 1.4123 ± 0.0005 | 1.4079 ± 0.0005 | 1.4033 ± 0.0005 | 1.3987 ± 0.0005 | 1.3942 ± 0.0005 | 1.3893 ± 0.0005 | –
